Reference: paper PMC6017749, “Exploring N-acyl-4-azatetracyclo[5.3.2.0^2,6.0^8,10]dodec-11-enes as 11β-HSD1 Inhibitors” (Molecules : A Journal of Synthetic Chemistry and Natural …, 2018)
“And” between values parts separate entries of the source, which are not always exact repeats. Identical values can stand only once.

Tests used:
human 11β-HSD1 = biological target: T1, human 11β-HSD1 (Homo sapiens, UniProt P28845); assay: 11β-HSD1 enzyme inhibition assay in human liver microsomes (3H-cortisone to 3H-cortisol, SPA); assay type: biochemical; conditions: for inhibition at 10 µM: read-out: hHSD1 % inh at 10 µM; for IC50: read-out: hHSD1 IC50
T1 construct: The assay uses human liver microsomes (HLM), where the enzyme is expressed; tissue Celsis In-vitro Technologies; host or cells: mixed sex human liver microsomes
T1 sequence (P28845 whole entry): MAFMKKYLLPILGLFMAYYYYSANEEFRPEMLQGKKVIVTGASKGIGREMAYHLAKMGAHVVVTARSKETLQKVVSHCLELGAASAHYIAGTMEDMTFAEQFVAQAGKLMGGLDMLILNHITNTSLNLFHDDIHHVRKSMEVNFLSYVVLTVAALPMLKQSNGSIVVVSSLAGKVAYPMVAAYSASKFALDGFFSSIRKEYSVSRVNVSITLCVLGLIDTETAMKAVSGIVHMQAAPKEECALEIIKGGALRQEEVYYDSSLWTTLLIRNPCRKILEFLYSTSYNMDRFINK
Experimental: A preliminary screen was performed using a human microsome assay with compounds at 10 µM in order to assess their potential inhibition of the target enzyme (Table 2). Percentage of inhibition was determined by measuring the conversion of ^3H-cortisone to ^3H-cortisol by capturing liberated ^3H-cortisol on anti-cortisol (HyTest Ltd., Turku, Finland)-coated scintillation proximity assay beads. The assay uses human liver microsomes (HLM), where the enzyme is expressed, and NADPH as the cofactor needed by the enzyme. Eight of the thirteen new compounds presented 100% inhibition of the human 11β-HSD1 in this single concentration assay, so dose-response curves were performed to get their IC50 values.
11β-HSD1 activity was determined in mixed sex, human liver microsomes (HLM, Celsis In-vitro Technologies) by measuring the conversion of ^3H-cortisone to ^3H-cortisol. Percentage inhibition was determined relative to a no inhibitor control. An amount of 5 μg of HLM were pre-incubated at 37 °C for 15 min with inhibitor and 1 mM NADPH in a final volume of 90 μL Krebs buffer. 10 μL of 200 nM ^3H-cortisone was then added followed by incubation at 37 °C for a further 30 min. The assay was terminated by rapid freezing on dry ice and ^3H-cortisone to ^3H-cortisol conversion determined in 50 μL of the defrosted reaction by capturing liberated ^3H-cortisol on anti-cortisol (HyTest Ltd)-coated scintillation proximity assay beads (protein A-coated YSi, GE Healthcare). Reported values are the average of 1–3 measurements. A nanomolar 11β-HSD1 inhibitor, UE2316, was added as a positive control within in each set of assays.

[1] = 10 µM, human liver microsomes, relative to no inhibitor control

Row | melting point [°C] | inhibition at 10 µM (human 11β-HSD1; [1]) [%] | IC50 (human 11β-HSD1; human liver microsomes) | IC50 of positive control (human 11β-HSD1; positive control within each set of assays, normal range per ref 20) | hHSD1 % inh at 10 µM (human 11β-HSD1; [1]) [%] | Compound
1 | 101 to 102 | – | – | – | – | O=C(c1ccc(Cl)nc1)N1CC2C3C=CC(C4CC34)C2C1 (centres unmarked) [Compound 10, (4-Azatetracyclo[5.3.2. 0^2,6.0^8,10]dodec-11-en-4-yl) (6-chloropyridin-3-yl)methanone]
2 | 90 to 91 | 100 | 5.44 µM | – | – | O=C(c1ccc(N2CCN(c3ccccc3)CC2)nc1)N1CC2C3C=CC(C4CC34)C2C1 (centres unmarked) [Compound 14, (4-Azatetracyclo[5.3.2.0^2,6.0^8,10]dodec-11-en-4-yl)[6-(4-phenylpiperazin-1-yl)pyridin-3-yl]methanone]
3 | – | – | – | within the normal range | – | O=C(c1csc(-c2cn[nH]c2)c1)N1CCC(F)(c2ccccc2Cl)CC1 [UE2316, reference compound]
4 | 135 to 136 | – | – | – | – | O=C(c1ccnc(Cl)c1)N1CC2C3C=CC(C4CC34)C2C1 (centres unmarked) [Compound 11, (4-Azatetracyclo[5.3.2. 0^2,6.0^8,10]dodec-11-en-4-yl)(2-chloropyridin-4-yl)methanone]
5 | 134 to 135 | – | – | – | – | CC(=O)N1CCC(C(=O)N2CC3C4C=CC(C5CC45)C3C2)CC1 (centres unmarked) [Compound 13, 1-[[4-(4-Azatetracyclo[5.3.2. 0^2,6.0^8,10]dodec-11-en-4-yl)carbonyl]piperidin-1-yl]ethan-1-one]
6 | 157 to 158 | 100 | 11.6 µM | – | – | O=C(c1ccc(N2CCN(c3ccc(C(F)(F)F)cc3)CC2)nc1)N1CC2C3C=CC(C4CC34)C2C1 (centres unmarked) [Compound 15, (4-Azatetracyclo[5.3.2.0^2,6.0^8,10]dodec-11-en-4-yl)[6-[4-(4-trifluoromethyl)phenylpiperazin-1-yl]pyridin-3-yl]methanone]
7 | 110 to 111 | 100 | 4.3 µM and 4.27 µM | – | – | O=C(c1ccccn1)N1CC2C3C=CC(C4CC34)C2C1 (centres unmarked) [Compound 5, (4-Azatetracyclo[5.3.2.0^2,6.0^8,10]dodec-11-en-4-yl)(pyridin-2-yl)methanone]
8 | 104 to 105 | < 50 | – | – | 49 | O=C(c1cccs1)N1CC2C3C=CC(C4CC34)C2C1 (centres unmarked) [Compound 7, (4-Azatetracyclo[5.3.2.0^2,6.0^8,10]dodec-11-en-4-yl)(thien-2-yl)methanone]
9 | 100 to 101 | – | – | – | – | CN1CCC(C(=O)N2CC3C4C=CC(C5CC45)C3C2)CC1 (centres unmarked) [Compound 12, (4-Azatetracyclo[5.3.2. 0^2,6.0^8,10]dodec-11-en-4-yl)(1-methylpiperidin-4-yl)methanone]
